As usually defined, the IC50 is the concentration needed to halve the response being measured.

The target in test [1] is T1, Tyrosine-protein phosphatase non-receptor type 11 (Homo sapiens, UniProt Q06124).
T1 sequence (Q06124 whole entry): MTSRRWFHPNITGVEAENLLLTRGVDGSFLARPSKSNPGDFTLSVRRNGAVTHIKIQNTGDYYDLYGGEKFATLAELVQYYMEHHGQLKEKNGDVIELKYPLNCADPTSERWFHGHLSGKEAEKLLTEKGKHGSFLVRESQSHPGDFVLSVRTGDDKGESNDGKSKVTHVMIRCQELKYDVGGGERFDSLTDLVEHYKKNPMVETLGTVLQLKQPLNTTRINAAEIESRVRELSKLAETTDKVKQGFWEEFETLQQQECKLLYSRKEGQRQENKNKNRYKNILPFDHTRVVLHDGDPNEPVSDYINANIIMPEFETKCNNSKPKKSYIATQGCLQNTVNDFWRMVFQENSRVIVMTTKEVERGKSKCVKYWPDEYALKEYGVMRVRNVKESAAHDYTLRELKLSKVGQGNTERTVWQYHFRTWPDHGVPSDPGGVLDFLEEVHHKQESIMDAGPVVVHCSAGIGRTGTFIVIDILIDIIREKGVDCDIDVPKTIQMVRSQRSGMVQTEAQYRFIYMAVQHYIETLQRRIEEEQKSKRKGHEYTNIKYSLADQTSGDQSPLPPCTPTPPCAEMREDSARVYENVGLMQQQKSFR
Briefly: Inhibition of SHP2 (unknown origin) using DiFMUP as substrate incubated for 60 mins followed by substrate addition for 30 mins by microplate reader method.

For the next test, the target named is CDK4/Cyclin D3 (Homo sapiens, UniProt P11802). Briefly: Inhibition of recombinant N-terminal GST/His6-fusion tagged human CDK4/Cyclin D3 expressed in Sf9 insect cells using 5-FAM-IPTSPITTTYFFFKKK as substrate preincubated for 10 mins followed by substrate addition and incubated for 3 hrs in presence of ATP by caliper mobility shift analysis.
Sequence of CDK4/Cyclin D3 (P11802 whole entry, the tested form may be a part): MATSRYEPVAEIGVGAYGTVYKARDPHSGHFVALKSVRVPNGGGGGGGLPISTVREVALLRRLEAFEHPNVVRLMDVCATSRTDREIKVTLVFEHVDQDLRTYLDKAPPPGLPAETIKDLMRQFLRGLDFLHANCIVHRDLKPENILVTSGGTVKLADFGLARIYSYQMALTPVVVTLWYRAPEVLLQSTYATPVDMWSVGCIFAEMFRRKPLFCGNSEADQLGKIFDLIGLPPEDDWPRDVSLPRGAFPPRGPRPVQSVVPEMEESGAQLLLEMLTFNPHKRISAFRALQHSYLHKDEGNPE
Sequence of CDK4/Cyclin D3 (P30281 whole entry, further chain, the tested form may be a part): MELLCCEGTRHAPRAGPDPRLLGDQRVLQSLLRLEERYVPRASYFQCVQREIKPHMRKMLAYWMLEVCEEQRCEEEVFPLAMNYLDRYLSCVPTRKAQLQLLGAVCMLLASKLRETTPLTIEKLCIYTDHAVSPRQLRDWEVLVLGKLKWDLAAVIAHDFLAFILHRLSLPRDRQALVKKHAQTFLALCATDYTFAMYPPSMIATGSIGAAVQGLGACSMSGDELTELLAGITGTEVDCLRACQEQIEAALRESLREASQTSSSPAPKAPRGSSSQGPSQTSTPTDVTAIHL
Test [2] has as its system MDA-MB-231.
The test system of test [3] is EMT6. In words: Antitumor activity in mouse EMT6 cells implanted in BALB/c syngenic mouse model assessed as tumor growth inhibition at 40 mg/kg, po qd in presence of abemaciclib measured after 18 days relative to control. The note with it: EMT6, 432 h, time 18 day, read-out: TGI. In kind it is functional.
Test [4] deals with MDA-MB-231. In words: Induction of cell cycle arrest in human MDA-MB-231 cells assessed as accumulation of cells in G2/M phase at 3 uM incubated for 48 hrs in presence of abemaciclib by RNase/propidium iodide staining based flow cytometry analysis (reference value: 2.7%). Type of test: functional. Background: In flow cytometry, cells or beads pass a laser one at a time.
Test [5] concerns MDA-MB-231. In words: Antiproliferative activity against human MDA-MB-231 cells assessed as inhibition of cell growth incubated for 48 hrs by MTT assay. Type of test: functional, cell-based. In general terms: Tetrazolium dyes change colour on reduction, which living cells bring about.
Test [6] relates to MDA-MB-231. Briefly: Induction of apoptosis in human MDA-MB-231 cells assessed as late apoptotic cells at 3 uM measured after 48 hrs by Annexin V-FITC/PI staining based flow cytometric analysis (reference value: 1.06%). In kind it is functional.
For test [7], the system named is MDA-MB-231. Briefly: Induction of cell cycle arrest in human MDA-MB-231 cells assessed as accumulation of cells in G2/M phase at 3 uM incubated for 48 hrs by RNase/propidium iodide staining based flow cytometry analysis (reference value: 2.7%). Type of test: functional.
Test [8] has as its system EMT6. In words: Antitumor activity against mouse EMT6 cells implanted in BALB/c mouse syngenic model assessed as tumor growth inhibition at 40 mg/kg, po qd and measured after 18 days relative to control. In kind it is functional. The note with it: EMT6, 432 h, time 18 day, read-out: TGI.
Test [9] has as its system MDA-MB-231. In words: Induction of apoptosis in human MDA-MB-231 cells assessed as viable cells at 3 uM measured after 48 hrs by Annexin V-FITC/PI staining based flow cytometric analysis (reference value: 98.04%). Type of test: functional. The note with it: read-out: Activity.
For test [10], the system named is MDA-MB-231. In words: Induction of apoptosis in human MDA-MB-231 cells assessed as early apoptotic cells at 3 uM incubated for 48 hrs in presence of abemaciclib by Annexin V-FITC/PI staining based flow cytometric analysis (reference value: 0.32%). In kind it is functional.
Test [11] has as its system MDA-MB-231. In words: Induction of apoptosis in human MDA-MB-231 cells assessed as viable cells at 3 uM incubated for 48 hrs in presence of abemaciclib by Annexin V-FITC/PI staining based flow cytometric analysis (reference value: 98.04%). In kind it is functional. The note with it: read-out: Activity.
Test [12] deals with MDA-MB-231. Briefly: Induction of cell cycle arrest in human MDA-MB-231 cells assessed as accumulation of cells in S phase at 3 uM incubated for 48 hrs by RNase/propidium iodide staining based flow cytometry analysis (reference value: […]). In kind it is functional.
For test [13], the system named is MDA-MB-231. Briefly: Induction of cell cycle arrest in human MDA-MB-231 cells assessed as accumulation of cells in S phase at 3 uM incubated for 48 hrs in presence of abemaciclib by RNase/propidium iodide staining based flow cytometry analysis (reference value: […]). In kind it is functional.
Test [14] deals with MDA-MB-231. Briefly: Induction of cell cycle arrest in human MDA-MB-231 cells assessed as accumulation of cells in G0/G1 phase at 3 uM incubated for 48 hrs in presence of abemaciclib by RNase/propidium iodide staining based flow cytometry analysis (reference value: 26.2%). Type of test: functional.
For test [15], the system named is MDA-MB-231. Briefly: Induction of cell cycle arrest in human MDA-MB-231 cells assessed as accumulation of cells in G0/G1 phase at 3 uM incubated for 48 hrs by RNase/propidium iodide staining based flow cytometry analysis (reference value: 26.2%). Type of test: functional.
Test [16] relates to EMT6. Briefly: Antiproliferative activity against mouse EMT6 cells assessed as inhibition of cell growth incubated for 48 hrs by MTT assay. Type of test: functional, cell-based.
Test [17] concerns MDA-MB-468.
In test [18] the test system is EMT6.
Test [19] relates to MDA-MB-231. In words: Induction of apoptosis in human MDA-MB-231 cells assessed as necrotic cells at 3 uM incubated for 48 hrs in presence of abemaciclib by Annexin V-FITC/PI staining based flow cytometric analysis (reference value: 0.58%). In kind it is functional.
In test [20] the test system is MDA-MB-231. Briefly: Induction of apoptosis in human MDA-MB-231 cells assessed as early apoptotic cells at 3 uM measured after 48 hrs by Annexin V-FITC/PI staining based flow cytometric analysis (reference value: 0.32%). Type of test: functional.
Test [21] concerns MDA-MB-468. In words: Antiproliferative activity against human MDA-MB-468 cells assessed as inhibition of cell growth incubated for 48 hrs by MTT assay. Type of test: functional, cell-based.
The test system of test [22] is MDA-MB-231. In words: Induction of apoptosis in human MDA-MB-231 cells assessed as necrotic cells at 3 uM measured after 48 hrs by Annexin V-FITC/PI staining based flow cytometric analysis (reference value: 0.58%). Type of test: functional.
Test [23] has as its system MDA-MB-231. In words: Induction of apoptosis in human MDA-MB-231 cells assessed as late apoptotic cells at 3 uM incubated for 48 hrs in presence of abemaciclib by Annexin V-FITC/PI staining based flow cytometric analysis (reference value: 1.06%). In kind it is functional.

In the case of `CN(C)C(=O)c1cc2cnc(Nc3nccc(Sc4cnc(N5CCC(C)(N)CC5)cn4)c3Cl)nc2n1C1CCCC1`, the IC50 turned out to be 31.3 nM in test [1] and 443 nM at CDK4/Cyclin D3.

For `CN(C)C(=O)c1cc2cnc(Nc3ccc(Sc4cnc(N5CCC(C)(N)CC5)cn4)cn3)nc2n1C1CCCC1`, the IC50 at CDK4/Cyclin D3 was found to be 8.1 nM.

Take `C[C@@H]1OCC2(CCN(c3cnc(Sc4ccnc(N)c4Cl)c(N)n3)CC2)[C@@H]1N` [BATOPROTAFIB]: the 50% inhibitory concentration (IC50) with MDA-MB-231 [2] was 12900 nM; with MDA-MB-231 [5] (mda-mb-231), above 20000 nM; in the test with EMT6 [16] (emt6), 7030 nM; in the test on MDA-MB-468 [17], 3110 nM; with EMT6 [18], 2490 nM; in the test on MDA-MB-468 [21] (mda-mb-468) it was above 20000 nM. For the same compound, the inhibition in vivo at 40 mg/kg with EMT6 [3] was found to be 74%; in the test with EMT6 [8] it was 60%. Besides, the Activity with MDA-MB-231 [4] is 2%; with MDA-MB-231 [6] it was 9.13%; in the test on MDA-MB-231 [7] it was 2.6%; in the test with MDA-MB-231 [10] it was 8.17%; with MDA-MB-231 [12], 56.7%; with MDA-MB-231 [13], 53.2%. Moreover, the Activity in the test with MDA-MB-231 [14] came to 44.8%; in the test on MDA-MB-231 [15] it was 40.7%; in the test on MDA-MB-231 [19] it was 0.95%; with MDA-MB-231 [20], 7.32%; with MDA-MB-231 [22], 1.07%; in the test with MDA-MB-231 [23], 12.42%. For the same compound, the viability at 3 µM with MDA-MB-231 [9] was determined as 82.5%; in the test with MDA-MB-231 [11], 78.5%.

As to `Cc1nc2c(F)cc(-c3nc(Nc4cccc(Sc5cnc(N6CCC7(CC6)CO[C@@H](C)[C@H]7N)cn5)c4Cl)ncc3F)cc2n1C(C)C`, the IC50 in the test with MDA-MB-231 [5] (Homo sapiens, MDA-MB-231, 48 h) was determined as 4550 nM; in [1] it was 16.5 nM; in the test on EMT6 [16] (Mus musculus, EMT6, 48 h), 580 nM; on CDK4/Cyclin D3, 6.7 nM; in the test with MDA-MB-468 [21] (Homo sapiens, MDA-MB-468, 48 h), 9100 nM.

Turning to `CN(C)C(=O)c1cc2cnc(Nc3nccc(Sc4cnc(N5CCC6(CC5)Cc5ccccc5[C@H]6N)cn4)c3Cl)nc2n1C1CCCC1`, the IC50 in test [1] is 3.2 nM; at CDK4/Cyclin D3, above 1000 nM.

Consider `Cc1nc2c(F)cc(-c3nc(Nc4ccc(Sc5cnc(N6CCC7(CC6)CO[C@@H](C)[C@H]7N)cn5)c(Cl)n4)ncc3F)cc2n1C(C)C`, for which the IC50 on CDK4/Cyclin D3 came to 139 nM.

Regarding `Cc1nc2c(F)cc(-c3nc(Nc4cc(Cl)c(Sc5cnc(N6CCC7(CC6)CO[C@@H](C)[C@H]7N)cn5)cn4)ncc3F)cc2n1C(C)C`, the IC50 at CDK4/Cyclin D3 came to 8.8 nM.

For the compound `Cc1nc2c(F)cc(-c3nc(Nc4cc(Sc5cnc(N6CCC7(CC6)CO[C@@H](C)[C@H]7N)cn5)c(Cl)cn4)ncc3F)cc2n1C(C)C`, at CDK4/Cyclin D3, the IC50 is above 1000 nM.

Regarding `CCN1CCN(Cc2ccc(Nc3ncc(F)c(-c4cc(F)c5nc(C)n(C(C)C)c5c4)n3)nc2)CC1` [ABEMACICLIB], the IC50 was above 20000 nM in the test with MDA-MB-231 [5] (Homo sapiens, MDA-MB-231, 48 h); 4180 nM in the test with EMT6 [16] (Mus musculus, EMT6, 48 h); above 20000 nM with MDA-MB-468 [21] (Homo sapiens, MDA-MB-468, 48 h). The Activity in the test with MDA-MB-231 [6] stood at 6.73%; with MDA-MB-231 [7], 2.7%; in the test on MDA-MB-231 [12], 60.2%; in the test on MDA-MB-231 [15], 37.1%; in the test with MDA-MB-231 [20], 5.86%; in the test on MDA-MB-231 [22], 1.42%. In addition, the inhibition in vivo at 40 mg/kg with EMT6 [8] came out at 35%. The viability at 3 µM in the test on MDA-MB-231 [9] was determined as 86%.

Take `CN(C)C(=O)c1cc2cnc(Nc3ccc(Sc4cnc(N5CCC(C)(N)CC5)cn4)c(Cl)n3)nc2n1C1CCCC1`: the IC50 at CDK4/Cyclin D3 turned out to be 51.1 nM.
